From patent US20250250230A1, “HETEROCYCLIC COMPOUND” (TAKEDA PHARMACEUTICAL COMPANY LIMITED, priority 2022, published 2025)

Target: T1, human orexin type 2 receptor (Homo sapiens, UniProt O43614)
T1 construct: expressed in transfected cells
T1 sequence (O43614 1-444): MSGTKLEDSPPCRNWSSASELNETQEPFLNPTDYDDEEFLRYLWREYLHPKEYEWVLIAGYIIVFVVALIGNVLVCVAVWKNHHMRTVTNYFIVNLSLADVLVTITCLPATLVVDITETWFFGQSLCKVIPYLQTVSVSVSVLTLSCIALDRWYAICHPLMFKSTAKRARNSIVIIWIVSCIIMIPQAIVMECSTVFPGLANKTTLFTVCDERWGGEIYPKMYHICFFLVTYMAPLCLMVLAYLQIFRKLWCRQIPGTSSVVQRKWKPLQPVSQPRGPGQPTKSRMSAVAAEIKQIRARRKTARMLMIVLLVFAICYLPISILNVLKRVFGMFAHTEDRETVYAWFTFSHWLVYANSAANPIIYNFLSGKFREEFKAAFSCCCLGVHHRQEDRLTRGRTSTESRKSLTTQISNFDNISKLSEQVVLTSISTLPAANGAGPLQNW
Assay: Measurement of orexin type 2 receptor agonist activity (calcium fluorescence, Fluo-4 AM, FDSS)
Format: cell-based
Settings: test compound 3 μM; CHO cells expressing human OX2 receptor; DMSO = 0%, orexin A (human) = 100%
In short: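 CHO-K1 cells stably expressing human OX2R were loaded with Fluo-4 AM (30 min 37 °C, 30 min RT) in HEPES-buffered HBSS with 0.1% BSA and probenecid. Calcium fluorescence was followed on FDSS for 2 min after compound addition; activity normalised to DMSO (0%) and 10 nM orexin A (100%).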

OX2R agonist activity (3 μM, %) [%] | SMILES
98 | CCS(=O)(=O)NC(C)[C@@H]1CCN1C(=O)[C@@H]1C[C@@]1(F)c1ccccc1-c1c(F)cccc1F (stereo partly drawn) [Example 363, N-[(1R)-1-{(2S)-1-[(1S,2S)-2-(2′,6′-difluoro[1,1′-biphenyl]-2-yl)-2-fluorocyclopropane-1-carbonyl]azetidin-2-yl}ethyl]ethanesulfonamide, or N-[(1S)-1-{(2S)-1-[(1S,2S)-2-(2′,6′-difluoro[1,1′-biphenyl]-2-yl)-2-fluorocyclopropane-1-carbonyl]azetidin-2-yl}ethyl]ethanesulfonamide]
88 | C[C@H]1CN(C(=O)[C@@H]2C[C@@]2(F)c2ccccc2-c2c(F)cccc2F)C[C@@H](CNS(C)(=O)=O)O1 [Example 364, N-({(2S,6S)-4-[(1S,2S)-2-(2′,6′-difluoro[1,1′-biphenyl]-2-yl)-2-fluorocyclopropane-1-carbonyl]-6-methylmorpholin-2-yl}methyl)methanesulfonamide]
103 | CS(=O)(=O)NC[C@@H]1CCN1C(=O)C1(CO)CC1c1ccccc1-c1c(F)cccc1F (stereo partly drawn) [Example 365, N-({(2S)-1-[(1R,2S)-2-(2′,6′-difluoro[1,1′-biphenyl]-2-yl)-1-(hydroxymethyl)cyclopropane-1-carbonyl]azetidin-2-yl}methyl)methanesulfonamide, or N-({(2S)-1-[(1S,2R)-2-(2′,6′-difluoro[1,1′-biphenyl]-2-yl)-1-(hydroxymethyl)cyclopropane-1-carbonyl]azetidin-2-yl}methyl)methanesulfonamide]
93 | CS(=O)(=O)NC[C@@H]1CCN1C(=O)C1CC1c1c(-c2c(F)cccc2F)csc1F (stereo partly drawn) [Example 367, N-{[(2S)-1-{(1R,2R)-2-[4-(2,6-difluorophenyl)-2-fluorothiophen-3-yl]cyclopropane-1-carbonyl}azetidin-2-yl]methyl}methanesulfonamide, or N-{[(2S)-1-{(1S,2S)-2-[4-(2,6-difluorophenyl)-2-fluorothiophen-3-yl]cyclopropane-1-carbonyl}azetidin-2-yl]methyl}methanesulfonamide]
97 | CS(=O)(=O)N[C@H]1CCN(C(=O)C2CC2c2c(-c3c(F)cccc3F)csc2F)C1 (stereo partly drawn) [Example 368, N-[(3S)-1-{(1R,2R)-2-[4-(2,6-difluorophenyl)-2-fluorothiophen-3-yl]cyclopropane-1-carbonyl}pyrrolidin-3-yl]methanesulfonamide, or N-[(3S)-1-{(1S,2S)-2-[4-(2,6-difluorophenyl)-2-fluorothiophen-3-yl]cyclopropane-1-carbonyl}pyrrolidin-3-yl]methanesulfonamide]
84 | CS(=O)(=O)NC[C@H]1CCN1C(=O)[C@@H]1C[C@H]1c1ccccc1-c1c(F)cccc1F [Example 370, N-({(2R)-1-[(1R,2R)-2-(2′,6′-difluoro[1,1′-biphenyl]-2-yl)cyclopropane-1-carbonyl]azetidin-2-yl}methyl)methanesulfonamide]
103 | CS(=O)(=O)NC[C@H]1CCN1C(=O)[C@@H]1C[C@@]1(F)c1ccccc1-c1c(F)cccc1F [Example 371, N-({(2R)-1-[(1S,2S)-2-(2′,6′-difluoro[1,1′-biphenyl]-2-yl)-2-fluorocyclopropane-1-carbonyl]azetidin-2-yl}methyl)methanesulfonamide]
95 | C[C@@H]1CN(C(=O)[C@@H]2C[C@@]2(F)c2ccccc2-c2c(F)cccc2F)C[C@@H](CNS(C)(=O)=O)O1 [Example 372, N-({(2S,6R)-4-[(1S,2S)-2-(2′,6′-difluoro[1,1′-biphenyl]-2-yl)-2-fluorocyclopropane-1-carbonyl]-6-methylmorpholin-2-yl}methyl)methanesulfonamide]
95 | COCC1(NS(C)(=O)=O)CCN(C(=O)[C@@H]2C[C@@]2(F)c2ccccc2-c2c(F)cccc2F)C1 (stereo partly drawn) [Example 373, N-[(3R)-1-[(1S,2S)-2-(2′,6′-difluoro[1,1′-biphenyl]-2-yl)-2-fluorocyclopropane-1-carbonyl]-3-(methoxymethyl)pyrrolidin-3-yl]methanesulfonamide, or N-[(3S)-1-[(1S,2S)-2-(2′,6′-difluoro[1,1′-biphenyl]-2-yl)-2-fluorocyclopropane-1-carbonyl]-3-(methoxymethyl)pyrrolidin-3-yl]methanesulfonamide]
98 | CCS(=O)(=O)NC[C@@H]1[C@H](O)CN1C(=O)[C@@H]1C[C@@]1(F)c1ccccc1-c1c(F)cccc1F [Example 374, N-({(2R,3R)-1-[(1S,2S)-2-(2′,6′-difluoro[1,1′-biphenyl]-2-yl)-2-fluorocyclopropane-1-carbonyl]-3-hydroxyazetidin-2-yl}methyl)ethanesulfonamide]
92 | CC1(NS(C)(=O)=O)CN(C(=O)[C@@H]2C[C@@]2(F)c2ccccc2-c2c(F)cccc2F)CC1(F)F (stereo partly drawn) [Example 375, N-{(3R)-1-[(1S,2S)-2-(2′,6′-difluoro[1,1′-biphenyl]-2-yl)-2-fluorocyclopropane-1-carbonyl]-4,4-difluoro-3-methylpyrrolidin-3-yl}methanesulfonamide, or N-{(3S)-1-[(1S,2S)-2-(2′,6′-difluoro[1,1′-biphenyl]-2-yl)-2-fluorocyclopropane-1-carbonyl]-4,4-difluoro-3-methylpyrrolidin-3-yl}methanesulfonamide]
93 | CS(=O)(=O)NC1C2CN(C(=O)[C@@H]3C[C@@]3(F)c3ccccc3-c3c(F)cccc3F)CC2CC1(F)F (stereo partly drawn) [Example 377, N-{(3aR,4S,6aS)-2-[(1S,2S)-2-(2′,6′-difluoro[1,1′-biphenyl]-2-yl)-2-fluorocyclopropane-1-carbonyl]-5,5-difluorooctahydrocyclopenta[c]pyrrol-4-yl}methanesulfonamide, or N-{(3aS,4R,6aR)-2-[(1S,2S)-2-(2′,6′-difluoro[1,1′-biphenyl]-2-yl)-2-fluorocyclopropane-1-carbonyl]-5,5-difluorooctahydrocyclopenta[c]pyrrol-4-yl}methanesulfonamide]
103 | CS(=O)(=O)N[C@@H]1CN(C(=O)C2CC2c2c(-c3c(F)cccc3F)csc2F)CCC1(F)F (stereo partly drawn) [Example 378, N-[(3R)-1-{(1R,2R)-2-[4-(2,6-difluorophenyl)-2-fluorothiophen-3-yl]cyclopropane-1-carbonyl}-4,4-difluoropiperidin-3-yl]methanesulfonamide, or N-[(3R)-1-{(1S,2S)-2-[4-(2,6-difluorophenyl)-2-fluorothiophen-3-yl]cyclopropane-1-carbonyl}-4,4-difluoropiperidin-3-yl]methanesulfonamide]
86 | CCC(NS(C)(=O)=O)[C@@H]1CCN1C(=O)[C@@H]1C[C@@]1(F)c1ccccc1-c1c(F)cccc1F (stereo partly drawn) [Example 379, N-[(1R)-1-{(2S)-1-[(1S,2S)-2-(2′,6′-difluoro[1,1′-biphenyl]-2-yl)-2-fluorocyclopropane-1-carbonyl]azetidin-2-yl}propyl]methanesulfonamide, or N-[(1S)-1-{(2S)-1-[(1S,2S)-2-(2′,6′-difluoro[1,1′-biphenyl]-2-yl)-2-fluorocyclopropane-1-carbonyl]azetidin-2-yl}propyl]methanesulfonamide]
